Assays:
Assay type in all cases: biochemical
AKT2 = biological target: T1, AKT2 (Homo sapiens, UniProt P31751); assay: AKT Kinase Assay (IMAP fluorescent polarisation) vs AKT2
T1 construct: purchased SignalChem
Procedure: (§1) Testing of the compounds was performed using an AKT Kinase Assay:
(§2) Activated AKT isoforms 1, 2 and 3 were assayed utilising a 5′ FAM Crosstide (Seq. GRPRTSSFAEG-OH)(SEO ID NO: 1). The extent of kinase phosphorylation was determined by fluorescent polarisation using IMAP progressive binding reagent, which introduces binding beads which allow the reagent to specifically bind to phosphate residues via covalent co-ordination complex bonds.
(§3) iMAP binding solution stops Crosstide/kinase interaction and specifically binds phosphorylated substrates. The degree of phosphorylation is determined by fluorescent polarisation (excitation 485 nm; emission 528 nm) or the reduction in speed of rotation of the excited substrate.
(§4) The following materials were used in the assay: • a) Activated AKT isoforms (SignalChem.) dissolved in Complete Reaction buffer at a pre-determined concentration selected so that the assay was carried out in the linear range. • b) AKT substrate peptide: FAM Crosstide (R7110) Molecular Devices, diluted in complete reaction buffer. • c) iMAP Progressive Screening Express Kit (R8127) Molecular Devices • d) Complete Reaction Buffer containing 0.1% BSA, 10 mM Tris-HCl, 10 mM MgCl2, 0.05% NaN3 and 0.01% phosphate free BSA, 1 mM DTT • e) Progressive Binding Solution containing 75% Buffer A, 25% Buffer B and low volume Binding Reagent which contains the binding entity for the assay • f) ATP diluted in complete reaction buffer • g) Black polystyrene 384 well assay plates (Nunc). • h) Biotek Synergy 4 Hybrid Plate reader.
(§5) 5 μl of test compound was dissolved in DMSO (Sigma Aldrich) and serially diluted in complete reaction buffer to give a fourteen point half log dose response and plated into 384 well black plates. The compound was incubated at room temperature with activated AKT isoform ([…] ) at the pre-determined concentration, for 45 minutes.
(§6) 2.5 μl of ATP solution mixed with 2.5 μl of AKT substrate peptide (FAM Crosstide (R7110) Molecular Devices) were dispensed into each well and the plate centrifuged at 1000 rpm for 20 seconds to ensure homogenous mixing of reagents. The reaction mix was incubated in the dark for one hour at room temperature.
(§7) The kinase reaction was stopped by the addition of Progressive Binding Solution and the mixture allowed to equilibrate for one hour in the dark, at room temperature.
(§8) The fluorescent polarisation generated in each well was determined using a […] Synergy 4 Hybrid plate reader. In brief, each reaction solution was excited at 485 nm with the emission measured at 528 nm in both the parallel and perpendicular pathway.
(§9) The polarisation value generated in each well was calculated by Gen5 software (Biotek) and the % inhibition of kinase activity compared to vehicle control was calculated via GraphPad Prism. IC50 values for each compound were calculated by non-linear regression analysis using Prism software.
(§10) All plates were internally controlled by two methods. Firstly, by calculating the signal:noise ratio; based on kinase polarisation without inhibitor and polarisation generated by complete reaction buffer in the absence of activated kinase. Secondly by determining IC50 values generated by known inhibitors of the AKT isoforms.

AKT1 = biological target: T2, AKT1 (Homo sapiens, UniProt P31749); assay: AKT Kinase Assay (IMAP fluorescent polarisation) vs AKT1
T2 construct: purchased SignalChem
T2 sequence (P31749 whole entry): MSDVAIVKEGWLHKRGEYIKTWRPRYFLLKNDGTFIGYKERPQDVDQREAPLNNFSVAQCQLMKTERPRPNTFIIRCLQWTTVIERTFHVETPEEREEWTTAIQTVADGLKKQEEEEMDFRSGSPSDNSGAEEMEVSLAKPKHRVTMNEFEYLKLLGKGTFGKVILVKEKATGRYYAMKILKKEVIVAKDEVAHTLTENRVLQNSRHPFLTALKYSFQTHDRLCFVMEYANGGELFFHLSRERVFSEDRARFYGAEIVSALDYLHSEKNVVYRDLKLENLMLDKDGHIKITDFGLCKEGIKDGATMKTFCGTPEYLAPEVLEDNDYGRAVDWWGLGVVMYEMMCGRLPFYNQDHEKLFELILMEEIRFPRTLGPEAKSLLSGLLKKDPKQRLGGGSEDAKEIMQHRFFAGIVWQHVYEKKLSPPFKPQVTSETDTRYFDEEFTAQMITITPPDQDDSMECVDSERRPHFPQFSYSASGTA
Procedure: as §1, §2, §3, §4, §5, §6, §7, §8, §9, §10

AKT3 = biological target: T3, AKT3 (Homo sapiens, UniProt Q9Y243); assay: AKT Kinase Assay (IMAP fluorescent polarisation) vs AKT3
T3 construct: purchased SignalChem
T3 sequence (Q9Y243 whole entry): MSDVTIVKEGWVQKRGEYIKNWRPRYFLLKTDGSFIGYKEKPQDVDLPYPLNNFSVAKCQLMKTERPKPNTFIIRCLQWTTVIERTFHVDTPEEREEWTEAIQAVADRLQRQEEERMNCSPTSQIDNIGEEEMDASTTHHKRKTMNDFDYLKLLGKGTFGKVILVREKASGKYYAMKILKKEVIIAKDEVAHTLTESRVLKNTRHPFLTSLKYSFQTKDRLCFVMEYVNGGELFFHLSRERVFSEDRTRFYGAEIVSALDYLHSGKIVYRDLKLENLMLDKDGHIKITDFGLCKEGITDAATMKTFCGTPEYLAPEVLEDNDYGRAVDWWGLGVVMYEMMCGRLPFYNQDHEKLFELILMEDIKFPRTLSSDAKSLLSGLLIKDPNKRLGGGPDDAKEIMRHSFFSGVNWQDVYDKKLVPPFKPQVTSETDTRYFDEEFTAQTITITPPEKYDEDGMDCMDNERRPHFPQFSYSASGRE
Procedure: as §1, §2, §3, §4, §5, §6, §7, §8, §9, §10

T1 sequence (P31751 whole entry): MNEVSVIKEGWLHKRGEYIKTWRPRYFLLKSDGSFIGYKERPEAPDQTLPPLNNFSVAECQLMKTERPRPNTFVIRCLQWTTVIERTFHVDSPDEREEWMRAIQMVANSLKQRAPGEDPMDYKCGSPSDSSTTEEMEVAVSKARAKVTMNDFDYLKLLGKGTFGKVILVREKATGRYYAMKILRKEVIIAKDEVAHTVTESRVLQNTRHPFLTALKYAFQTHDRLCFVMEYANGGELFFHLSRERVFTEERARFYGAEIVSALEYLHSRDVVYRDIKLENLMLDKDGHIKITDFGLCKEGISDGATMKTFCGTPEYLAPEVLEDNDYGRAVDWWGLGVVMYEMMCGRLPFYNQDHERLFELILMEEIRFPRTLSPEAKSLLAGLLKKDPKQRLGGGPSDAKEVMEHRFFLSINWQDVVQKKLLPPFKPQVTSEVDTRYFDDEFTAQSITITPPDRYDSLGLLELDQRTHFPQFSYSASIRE

| SMILES | IC50 (AKT2) [nM] | IC50 (AKT1) [nM] | IC50 (AKT3) [µM] |
| --- | --- | --- | --- |
| COCCc1nnc2n1-c1cc(-c3ccccc3)c(-c3ccc(C4(N)CCC4)cc3)nc1OC2 [Example 121, 1-(4-(1-(2-methoxyethyl)-8-phenyl-4H-pyrido[2,3-b][1,2,4]triazolo[4,3-d][1,4]oxazin-7-yl)phenyl)cyclobutanamine] | 1000 to 10000 | 100 to 1000 | 1 to 10 |
| NC(=O)CN1CCOc2nc(-c3ccc(C4(N)CCC4)cc3)c(-c3ccccc3)cc21 [Example 44, 2-(6-(4-(1-aminocyclobutyl)phenyl)-7-phenyl-2,3-dihydro-1H-pyrido[2,3-b][1,4]oxazin-1-yl)acetamide] | 1000 to 10000 | 1000 to 10000 | > 10 |
| NC1(c2ccc(-c3nc4c(cc3-c3ccccc3)-c3n[nH]c(N5CCOCC5)c3CC4)cc2)CCC1 [Example 13, 1-(4-(3-morpholino-8-phenyl-4,5-dihydro-2H-pyrazolo[3,4-f]quinolin-7-yl)phenyl)cyclobutanamine] | 100 to 1000 | 100 to 1000 | 1 to 10 |
| NC1(c2ccc(-c3nc4c(cc3-c3ccccc3)-n3c(nn(CC(F)(F)F)c3=O)CO4)cc2)CCC1 [Example 103, 7-(4-(1-aminocyclobutyl)phenyl)-8-phenyl-2-(2,2,2-trifluoroethyl)-2,4-dihydro-1H-pyrido[2,3-b][1,2,4]triazolo[4,3-d][1,4]oxazin-1-one] | 100 to 1000 | 1000 to 10000 | 1 to 10 |
| CSc1[nH]nc2c1CCc1nc(-c3ccc(C4(N)CCC4)cc3)c(-c3ccccc3)cc1-2 [Example 9, 1-(4-(3-(methylthio)-8-phenyl-4,5-dihydro-2H-pyrazolo[3,4-f]quinolin-7-yl)phenyl)cyclobutanamine] | 1000 to 10000 | 100 to 1000 | > 10 |
| CNc1[nH]nc2c1CCc1nc(-c3ccc(C4(N)CCC4)cc3)c(-c3ccccc3)cc1-2 [Example 11, 7-(4-(1-aminocyclobutyl)phenyl)-N-methyl-8-phenyl-4,5-dihydro-2H-pyrazolo[3,4-f]quinolin-3-amine] | 100 to 1000 | 100 to 1000 | > 10 |
| NC1(c2ccc(-c3nc4c(cc3-c3ccccc3)N(Cc3cnc[nH]3)C(=O)CO4)cc2)CCC1 [Example 53, 1-((1H-imidazol-5-yl)methyl)-6-(4-(1-aminocyclobutyl)phenyl)-7-phenyl-1H-pyrido[2,3-b][1,4]oxazin-2(3H)-one] | 1000 to 10000 | 1000 to 10000 | 1 to 10 |
| NC1(c2ccc(-c3nc4c(cc3-c3ccccc3)-c3n[nH]cc3CCC4)cc2)CCC1 [Example 21, 1-(4-(9-phenyl-2,4,5,6-tetrahydropyrazolo[3′,4′:3,4]cyclohepta[1,2-b]pyridin-8-yl)phenyl)cyclobutanamine] | 1000 to 10000 | 100 to 1000 | > 10 |
| NC1(c2ccc(-c3nc4c(cc3-c3ccccc3)-n3c(nnc3-c3ccccc3)CO4)cc2)CCC1 [Example 129, 1-(4-(1,8-diphenyl-4H-pyrido[2,3-b][1,2,4]triazolo[4,3-d][1,4]oxazin-7-yl)phenyl)cyclobutanamine] | 1000 to 10000 | 100 to 1000 | 1 to 10 |
| CC(C)N1C(=O)COc2nc(-c3ccc(C4(N)CCC4)cc3)c(-c3ccccc3)cc21 [Example 57, 6-(4-(1-aminocyclobutyl)phenyl)-1-isopropyl-7-phenyl-1H-pyrido[2,3-b][1,4]oxazin-2(3H)-one] | 100 to 1000 | 1000 to 10000 | 1 to 10 |
| CN1C(=O)COc2nc(-c3ccc(CN)cc3)c(-c3ccccc3)cc21 [Example 131, 6-(4-(aminomethyl)phenyl)-1-methyl-7-phenyl-1H-pyrido[2,3-b][1,4]oxazin-2(3H)-one] | 100 to 1000 | 1000 to 10000 | 1 to 10 |
| NC1(c2ccc(-c3nc4c(cc3-c3ccccc3)-n3c(CO)nnc3CO4)cc2)CCC1 [Example 107] | 1000 to 10000 | ≤ 100 | 1 to 10 |
| CC1Oc2nc(-c3ccc(C4(N)CCC4)cc3)c(-c3ccccc3)cc2N(C)C1=O (stereo not drawn) [Example 84, 6-(4-(1-aminocyclobutyl)phenyl)-1,3-dimethyl-7-phenyl-1H-pyrido[2,3-b][1,4]oxazin-2(3H)-one] | 1000 to 10000 | 100 to 1000 | 1 to 10 |
| NC1(c2ccc(-c3nc4c(cc3-c3ccccc3)-n3c(nnc3C(F)(F)F)CO4)cc2)CCC1 [Example 100, 1-(4-(8-phenyl-1-(trifluoromethyl)-4H-pyrido[2,3-b][1,2,4]triazolo[4,3-d][1,4]oxazin-7-yl)phenyl)cyclobutanamine] | 1000 to 10000 | 100 to 1000 | 1 to 10 |
| CN1Cc2nc(-c3ccc(C4(N)CCC4)cc3)c(-c3ccccc3)cc2N(C)C1=O [Example 89, 6-(4-(1-aminocyclobutyl)phenyl)-1,3-dimethyl-7-phenyl-3,4-dihydropyrido[3,2-d]pyrimidin-2(1H)-one] | 100 to 1000 | 100 to 1000 | 1 to 10 |
| CN1C(=O)COc2nc(-c3ccc([C@]4(N)C[C@@](C)(O)C4)cc3)c(-c3ccccc3)cc21 [Example 134, 6-(4((1s,3s)-1-amino-3-hydroxy-3-methylcyclobutyl)phenyl)-1-methyl-7-phenyl-1H-pyrido[2,3-b][1,4]oxazin-2(3H)-one] | 1000 to 10000 | 100 to 1000 | > 10 |
| NC1(c2ccc(-c3nc4c(cc3-c3ccccc3)NC(=O)CO4)cc2)CCC1 [Example 30, 6-(4-(1-aminocyclobutyl)phenyl)-7-phenyl-1H-pyrido[2,3-b][1,4]oxazin-2(3H)-one] | 1000 to 10000 | 1000 to 10000 | 1 to 10 |
| C[C@]1(O)C[C@@](N)(c2ccc(-c3nc4c(cc3-c3ccccc3)N(CC3CC3)C(=O)CO4)cc2)C1 [Example 144, 6-(4-((1r,3r)-1-amino-3-hydroxy-3-methylcyclobutyl)phenyl)-1-(cyclopropylmethyl)-7-phenyl-1H-pyrido[2,3-b][1,4]oxazin-2(3H)-one] | ≤ 100 | 100 to 1000 | 0.1 to 1 |
| NC1(c2ccc(-c3nc4c(cc3-c3ccccc3)N(CC3CC3)C(=O)CO4)cc2)CCC1 [Example 55, 6-(4-(1-aminocyclobutyl)phenyl)-1-(cyclopropylmethyl)-7-phenyl-1H-pyrido[2,3-b][1,4]oxazin-2(3H)-one] | ≤ 100 | 100 to 1000 | 0.1 to 1 |
| NC1(c2ccc(-c3nc4c(cc3-c3ccccc3)-c3n[nH]c(O)c3CC4)cc2)CCC1 [Example 7, 7-(4-(1-aminocyclobutyl)phenyl)-8-phenyl-4,5-dihydro-2H-pyrazolo[3,4f]quinolin-3-ol] | 1000 to 10000 | ≤ 100 | > 10 |
| N#CCn1nc2n(c1=O)-c1cc(-c3ccccc3)c(-c3ccc(C4(N)CCC4)cc3)nc1OC2 [Example 101, 2-(7-(4-(1-aminocyclobutyl)phenyl)-1-oxo-8-phenyl-1H-pyrido[2,3-b][1,2,4]triazolo[4,3-d][1,4]oxazin-2(4H)-yl)acetonitrile] | 100 to 1000 | 100 to 1000 | 1 to 10 |
| CCN1CCc2nc(-c3ccc(C4(N)CCC4)cc3)c(-c3ccccc3)cc2C1 [Example 27, 1-(4-(6-ethyl-3-phenyl-5,6,7,8-tetrahydro-1,6-naphthyridin-2-yl)phenyl)cyclobutanamine] | > 10000 | 1000 to 10000 | > 10 |

— US9221838B2, “Inhibitors of AKT activity” (ALMAC DISCOVERY LIMITED, priority 2009, dated 2015)
